One data set deals with HUVEC. Kind of data set: HUVEC tube formation assay. The format is cell-based, human. The conditions noted are these: 1 μM in 0.1% DMSO, overnight. Summed up:
(§1)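 HUVEC and LEC in EBM with 20% FBS, hydrocortisone and dibutyryl-cAMP, up to eleven passages, treated overnight at 37 °C with compound at 1 μM in 0.1% DMSO, then fixed in 4% paraformaldehyde. Read-out: total tube length (μm) per area over three hotspot images per well, triplicate wells.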

The test system of data set [1] is transgenic zebrafish expressing a fluorescent vascular reporter gene. As to conditions: Tran et al., 2007, cited from earlier work.
The subject of a further data set is Xenopus embryos. As to conditions: for scored in the phenotypic Xenopus screens: known antiangiogenic compounds; for Type of edema Periocular: * = causing bulging eyes, # = bilateral, causing narrow-set eyes; for Type of edema Ventral: ‡ = edemas also detected in the gut. Summed up:
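Stage 31 (37 hpf) Xenopus embryos, five per well, exposed to 20 µM compound in 1% DMSO at 23 °C for 4 days. Edema, lethality and other external phenotypes were scored daily by two investigators at stages 39, 41, 45 and 47.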

Data set [2] concerns blood vessel development and/or lymphangiogenesis in Xenopus embryos. The format is in vivo, Xenopus laevis. Summed up: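 Albino Xenopus embryos treated at 20 μM final (from 10-mM DMSO stocks) in screening medium, 7 per well, from stage 31 (37 hpf) to stage 35/36 (50 hpf) or 42 (80 hpf). Fixed in 4% paraformaldehyde and scored by whole-mount in situ hybridization: vasculogenesis and intersomitic vein angiogenesis at stage 35/36, lymph vessel development at stage 42.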

Data set [3] deals with LEC. Kind of data set: cells. In kind it is cell-based, human. As to conditions: 1 μM in 0.1% DMSO, overnight. Summed up: as §1
The subject of data set [4] is LEC. As to the kind of experiment: LEC cell proliferation assay. In kind it is cell-based, human. The conditions noted are these: 10 μM in 0.1% DMSO, 48 hours. The essentials: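 HUVEC and LEC in EBM with 20% FBS, hydrocortisone and dibutyryl-cAMP were treated with compound at 10 μM in 0.1% DMSO for 48 hours. Viable cells read by fluorescence, in five replicates.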

Entries after “also recorded” stand apart in the source; their conditions may differ.

Take `CN(C)c1ccc(C=C2C(=O)Nc3ccccc32)cc1` [SU 4312, 3-(4-Dimethylaminobenzylidenyl)-2-indolinone]: in the data set on HUVEC, the HUVEC tube formation entry is “O (O, inactive or marginal effects (85-115% of control);)”. For the same molecule, the “recovery as antiangiogenic compound in the transgenic zebrafish screen” value in data set [1] is recorded as “recovery”. Besides, the “antiangiogenic effects in zebrafish” value in data set [1] (at higher concentrations (>30 μM)) was “moderate antiangiogenic effects”. Moreover, in the data set with Xenopus embryos (20 μM), the “scored in the phenotypic Xenopus screens” value was “active”. For the same molecule, in the data set on Xenopus embryos (embryonic phenotype in the primary screen), the Embr. phen. entry is on record as “EDE”. For the same molecule, in the data set with Xenopus embryos (embryonic stage), the “Type of edema Pronephric” value was 45 embryonic stages according to Nieuwkoop and Faber (NF); the “Type of edema Periocular” value was 45 embryonic stages according to Nieuwkoop and Faber (NF); the “Type of edema Ventral” value was 45 embryonic stages according to Nieuwkoop and Faber (NF). Moreover, in the data set on Xenopus embryos (onset of edema, 20 μM, 1% DMSO, treatment from stage 31, Nieuwkoop & Faber stage), the “Onset (NF)” value stood at 45 NF. Further, the “blood vessel development phenotype (apj expression, in words)” value in data set [2] (20 μM from stage 31, fixed at stage 35/36) was “largely unaffected; also recorded: normal angiogenic ISV outgrowth”. For the same molecule, in data set [2] (20 μM from stage 31, fixed at stage 42), the “lymph vessel development phenotype (vegfr3 expression, in words)” value is reported as “inhibiting preferentially lymphatic vascular development; also recorded: lymphangiogenesis was largely suppressed; also recorded: robustly blocks lymphangiogenesis”. Also, the Blood vessel phenotype entry in data set [2] (Xenopus embryos) is on record as “normal”. For the same molecule, in data set [2] (anterior lymph heart, Xenopus embryos), the ALH phenotype result is listed as “impaired”. Also, in data set [2] (anterior lymph sac, Xenopus embryos), the ALS phenotype entry is on record as “impaired”. The PLV phenotype entry in data set [2] (posterior lymph vessels, Xenopus embryos) is “hypoplastic”. In the data set on LEC [3], the LEC tube formation entry was “O (O, inactive or marginal effects (85-115% of control);)”. Further, the LEC proliferation result with LEC [4] is “O (O, inactive or marginal effects (85-115% of control);)”.

With `COc1cc2ncnc(Nc3cccc(Cl)c3)c2cc1OC` [Tyrphostin AG 1478, N-(3-Chlorophenyl)-6,7-dimethoxy-4-quinazolinamine], the “recovery as antiangiogenic compound in the transgenic zebrafish screen” value in data set [1] is listed as “recovery”. Besides, the “scored in the phenotypic Xenopus screens” value in the data set on Xenopus embryos (20 μM) is listed as “active”. Besides, the “Lethality (NF)” value in the data set on Xenopus embryos (compounds causing edema, 20 μM, 1% DMSO, treatment from stage 31, scored to stage 47) was 46 NF. Besides, in the data set with Xenopus embryos (embryonic stage), the “Type of edema Periocular” value is 45 embryonic stages according to Nieuwkoop and Faber (NF); the “Type of edema Ventral” value was 45 embryonic stages according to Nieuwkoop and Faber (NF). Also, in the data set on Xenopus embryos (embryonic stage, ¶ = the heart chambers were enlarged), the Cardiac phenotype is 45¶ embryonic stages according to Nieuwkoop and Faber (NF). Further, the Lethality in the data set with Xenopus embryos (embryonic stage, — = no stage of lethality given) was 46 embryonic stages according to Nieuwkoop and Faber (NF).
